Assay results: paper PMC7816212 (Nature, 2020)

Columns and labels:
Format in all cases: binding
BCL6 [1] = target: BCL6 (Homo sapiens, UniProt P41182, E41A); assay: competitive TR-FRET, displacement of FITC-BCoR peptide
BCL6 [2] = target: BCL6 (Homo sapiens, UniProt A5PL18); assay: cryo-EM of the BCL6 filament
BCL6 [3] = target: BCL6 (Homo sapiens, UniProt P41182); assay: competitive TR-FRET, displacement of FITC-BCoR peptide

EC50 (BCL6 [2]) | SMILES | competitive TR-FRET, displacement of FITC-BCoR peptide (BCL6 [1]) | competitive TR-FRET, displacement of FITC-BCoR peptide (BCL6 [3])
64 nM | CNC(=O)COc1cc2cc(Nc3nc(N4C[C@H](C)C[C@H](C)C4)ncc3Cl)ccc2n(C)c1=O [BI-3802] | the E41A substitution did not impair drug binding to BCL6 (Extended Data Fig. 4f) | 
 | CNC(=O)COc1cc2cc(Nc3nc(N4CCC(C(=O)N(C)C)CC4)ncc3Cl)cc(OC)c2n(C)c1=O [BI-3812] |  | despite comparable affinity of both BI-3802 and BI-3812 to BCL6 (Extended Data Fig. 8h)
